Results as given in ChEMBL document CHEMBL1151865, “New developments for the design, synthesis and biological evaluation of potent SARS-CoV 3CL(pro) inhibitors” (Bioorg Med Chem Lett, 2009).

Each compound was assayed against Replicase polyprotein 1ab (Severe acute respiratory syndrome-related coronavirus, UniProt P0C6X7) (assay: Inhibition of SARS coronavirus 3CL protease pretreated for 10 mins before substrate addition).

In order of rising Ki:
1. CC(C)C[C@H](NC(=O)[C@@H](NC(=O)OCc1ccccc1)C(C)C)C(=O)N[C@@H](CCC(=O)N1CCOCC1)C(=O)C(F)(F)F  21 µM
2. CC(C)C[C@H](NC(=O)[C@@H](NC(=O)OCc1ccccc1)C(C)C)C(=O)N[C@@H](CCC(=O)N(C)Cc1ccccc1)C(=O)C(F)(F)F  34.1 µM
3. CC(C)C[C@H](NC(=O)[C@@H](NC(=O)OCc1ccccc1)C(C)C)C(=O)N[C@@H](CCC(=O)c1nccs1)C(=O)c1nccs1  45.2 µM
4. CCN(CC)C(=O)CC[C@H](NC(=O)[C@H](CC(C)C)NC(=O)[C@@H](NC(=O)OCc1ccccc1)C(C)C)C(=O)c1nc2ccccc2s1  49.3 µM
5. CCN(CC)C(=O)CC[C@H](NC(=O)[C@H](CC(C)C)NC(=O)[C@@H](NC(=O)OCc1ccccc1)C(C)C)C(=O)c1nccs1  112 µM
6. CCN(CC)C(=O)CC[C@H](NC(=O)[C@@H](NC(=O)OCc1ccccc1)C(C)C)C(=O)c1nc2ccccc2s1  159 µM
7. CCCN(CCC)C(=O)CC[C@H](NC(=O)[C@H](CC(C)C)NC(=O)[C@@H](NC(=O)[C@H](C)NC(=O)OCc1ccccc1)C(C)C)C(=O)C(F)(F)F  297 µM
8. CCCN(CCC)C(=O)CC[C@H](NC(=O)[C@H](CC(C)C)NC(=O)[C@@H](NC(=O)OCc1ccccc1)C(C)C)C(=O)C(F)(F)F  363 µM
9. CCN(CC)C(=O)CC[C@H](NC(=O)[C@H](CC(C)C)NC(=O)OCc1ccccc1)C(=O)c1nccs1  462 µM
10. CC(C)C[C@H](NC(=O)[C@@H](NC(=O)OCc1ccccc1)C(C)C)C(=O)N[C@@H](CCC(=O)N1CCOCC1)C(=O)c1nccs1  478 µM
11. CCCN(CCC)C(=O)CC[C@H](NC(=O)[C@H](CC(C)C)NC(=O)OCc1ccccc1)C(=O)C(F)(F)F  584 µM
12. CCN(CC)C(=O)CC[C@H](NC(=O)[C@@H](NC(=O)OCc1ccccc1)C(C)C)C(=O)c1nccs1  614 µM
